Experimental findings from patent US5011824A, “Rectal motilin preparation” (Kyowa Hakko Kogyo Co., Ltd., priority 1988, dated 1991) are described below.

A short description of this data set: Intravenous safety of motilin in rats. The data set is classed as in vivo. Conditions: 10 mg/kg intravenously. The text has this:
The preparation usually contains a therapeutically effective quantity, suitably about 0.05 to about 5% by weight, preferably about 0.1 to about 2% by weight, of motilin.

In the case of motilin, the mortality result is reported as “did not die”.
